Assay results published in US20240194290A1, “HIDDEN ANTIBIOTICS IN THE HUMAN PROTEOME” (THE TRUSTEES OF THE UNIVERSITY OF PENNSYLVANIA, priority 2021, published 2024).
Ends that are not written are not given here.

Assays:
[1] = test system: Gram-negative gut commensals (A. muciniphila and Bacteroidetes species); experiment: Antibacterial assay against Gram-negative gut commensals; format: cell-based
From the text: The 13 most abundant members of the human gut microbiota^15 were exposed to increasing concentrations of the peptides. Species from four different phyla were used to determine susceptibility to the encrypted peptides: Akkermansia muciniphila (Verrucomicrobia); Bacteroides fragilis, Bacteroides thetaiotaomicron, Bacteroides vulgatus, Bacteroides uniformis, Bacteroides eggerthi, Parabacteroidetes distasonis, and Prevotella copri (Bacteroidetes); Collinsella aerofaciens (Actinobacteria); and Clostridium scindens and Clostridium spiroforme (Firmicutes).
Methods: Bacterial strains and media. […] Minimum inhibitory concentrations (MICs) of peptides were determined using the broth microdilution technique in LB, NB and supplemented BHI with an initial inoculum of 5×10^6 cells in nontreated polystyrene microtiter plates (Corning, USA). […]

A. baumannii ATCC19606 = experiment: Outer membrane permeabilization (NPN uptake) assay; format: cell-based, Acinetobacter baumannii; details: peptides at MIC, compared to untreated control and polymyxin B
Experimental: FIG. 3. Synergy, resistance development and mechanism of action studies of encrypted peptides. […] (FIG. 3B) Evolution of resistance by A. baumannii to encrypted peptides derived from the CUB domain (red) or polymyxin B (gray) after 30 days of serial passaging in liquid nutrient broth. Peptides and antibiotics were used at sub-inhibitory concentrations. Cells were passaged every 48 h. […] (FIG. 3D) Cytoplasmic membrane depolarization effects of the encrypted peptides against A. baumannii. (FIG. 3E) NPN assays showing the effect of encrypted peptides derived from the CUB domain and natriuretic peptide on permeabilization of the outer membrane of A. baumannii.
In order to investigate the mode of action of encrypted peptides against bacterial cells, assays were performed to study their effects on the bacterial membrane. First, the ability of encrypted peptides to disrupt and depolarize the bacterial cytoplasmic membrane was assessed […]. 3,3′-dipropylthiadicarbocyanine iodide [DiSC3(5)] was used, a potentiometric fluorophore that accumulates and aggregates in the cytoplasmic membrane, quenching its fluorescence. Upon imbalances of the cytoplasmic membrane transmembrane potential, the fluorophore migrates to the cytoplasm or the outer environment, generating fluorescence. […]
Methods: Membrane depolarization assays. The cytoplasmic membrane depolarization activity of the peptides was determined by measurements of fluorescence of the membrane potential-sensitive dye, DiSC3(5). […] Thereafter, the cells (100 μL) were incubated for 15 min with 20 nmol L^−1 of DiSC3(5) until a stable reduction of fluorescence was achieved, indicating the incorporation of the dye into the bacterial membrane. Membrane depolarization was then monitored by observing the change in the fluorescence emission intensity of the membrane potential-sensitive dye, DiSC3(5) (λex=622 nm, λem=670 nm), after the addition of peptides (100 μL solution at MIC values). […] The membrane permeability of the peptides was determined by using the N-phenyl-1-napthylamine (NPN) uptake assay. […]

| Sequence | activity against Gram-negative gut commensals [1] | outer membrane permeabilization (NPN fluorescence) (A. baumannii ATCC19606) |
| --- | --- | --- |
| MLPKSFIKLLRSKVSSFLRPYK [SCUB3-MLP22] | potent activity | increased fluorescence |
| SKEMFPRSFIKLLRSKVSRFLRPYK [SCUB1-SKE25] | potent activity | increased fluorescence |
